Experimental data reported in patent US20230143604A1, “QW DOSING OF GIP RECEPTOR AGONIST PEPTIDE COMPOUNDS AND USES THEREOF” (TAKEDA PHARMACEUTICAL COMPANY LIMITED, priority 2020, published 2023).
Starred links: 1 amine or outer side, 2 acyl side, 3 side chain; linkers in the order of their positions; H or OH if unused. Non-standard residues stand in square brackets, D forms with d. Residues, ends and D or L forms follow the SMILES beside them. Groups on a side chain read outwards from the residue. *: point of attachment. C18 diacid = O=C(O)CCCCCCCCCCCCCCCCC(=O)*; C17 diacid = O=C(O)CCCCCCCCCCCCCCCC(=O)*; γGlu = O=C(O)[C@H](CCC(=O)[*:2])N[*:1]; NMeY = CN[C@@H](Cc1ccc(O)cc1)C(=O)O; AEEA = NCCOCCOCC(=O)O; Aib = CC(C)(N)C(=O)O

Assays:
[1] = Serum half-life and percentage remaining at 48 hours; format: in vitro ADME; settings: human plasma, 500 nM peptide, 37° C.; for half-life at 500 nM / remaining at 48 h, 500 nM: both sexes, pH 7.4; for half-life at 500 nM: read-out: Serum t1/2 (converted); for remaining at 48 h, 500 nM: plasma (sodium heparin)
Procedure: Human plasma (mixed gender: sodium heparin is used as anti-coagulant; pre-adjusted to pH 7.4—NB alternative species may be used) is spiked with each test peptide (500 nM) and incubated·cn=3) at 37° C. for 48 hours in a 5% CO2 environment. Aliquots are taken at 0. 1, 2, 4, 7, 24 and […] and pH adjusted to pH 3 with 20% formic acid prior to analysis. Appropriate positive control compounds will be incubated in parallel, in addition to a no plasma control, sampled at 0 and 8 hours. All samples will be treated with ice-cold acetonitrile/methanol (4:1 (v/v)) containing internal standard prior to centrifugation at 2000 g and 4° C. for 10 minutes and subjected to LC-MS/MS analysis.
The samples are analyzed by LC-MS/MS using a 6500 (or equivalent) triple quadrupole mass spectrometer (AB Sciex) coupled to an appropriate Liquid Chromatography (LC) system. Protein binding and stability values are determined via peak area ratios using multiple reaction monitoring (MRM) parameters following compound optimisation. Multiple reaction monitoring (MRM) is a highly sensitive method of targeted mass spectrometry (MS) that can be used to selectively detect and quantify peptides based on the screening of specified precursor peptide-to-fragment ion transitions.

[2] = Solubility in phosphate buffer pH 7.4
Summary of the method: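 Solubility at pH 7.4 determined by stepwise addition of 200 mM phosphate buffer in 100 μL increments to 3 mg peptide, mixing briefly each time, until no insoluble material remained, then measured by liquid chromatography.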

[3] = Human plasma protein binding (PPB); format: in vitro ADME
Summary of the method: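 Peptides spiked at 1000 nmol/L into pooled human K2-EDTA plasma adjusted to pH 7.4, incubated 30 min at 37 °C, then ultracentrifuged at ~450,000 g, 4 °C for 3 h. Fu derived from LC-MS/MS (MRM) peak area ratios, supernatant versus plasma.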

[4] = Dog plasma protein binding (PPB); format: in vitro ADME; settings: pH 7.4; fraction unbound; dog serum; read-out: Dog PPB (FUplasma)
Summary of the method: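 Fraction unbound (Fu,plasma) is given as a percentage. It was measured with the method and analysis of the human protein-binding protocol, but using dog serum in place of human serum.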

[5] = Pharmacokinetics in dog after IV and SC dosing; settings: in vivo
Procedure: Pharmacokinetic (PK) were conducted in dog in order to determine the half-life after IV and SC dosing. The peptide was dissolved in 10% DMSO/0.09% Polysorbate/PBS pH 7.4 to a concentration of 3 nmol/mL and the animal were dose with a volume of 1 mL/kg SC or IV. Blood sample were collected at 0, 0.033, 0.083, 0.25, 0.5, 1, 2, 4, 6, 8, 12, 24, 48, 72, 96, 120, 168, 336 hours for IV dosing and 0.25, 0.5, 1, 2, 4, 6, 8, 12, 24, 48, 72, 96, 120, 168, 336 for SC dosing, EDTA-K2 was used as anticoagulant. The plasma concentration of the peptide was measured using LCMS. Allometric scaling of lipidated peptide pharmacokinetics including T1/2 and MRT is known in the art for rodent to dog and mini pig and to humans. […] See for example, Discovery and Development of Liraglutide and Semaglutide. Knudsen, L. B.; Lau, J. Frontiers in Endocrinology, 2019, vol 10, Article 155.

[6] = pH 7.4, aqueous buffer, pH 7.4 Phosphate Buffer - Solubility, 200 mM Phosphate buffer pH 7.4
[7] = pH 7.4, solubility in phosphate buffer at pH 7.4, 200 mM phosphate buffer pH 7.4

CC[C@H](C)[C@H](NC(=O)[C@H](CO)NC(=O)[C@H](Cc1ccc(O)cc1)NC(=O)[C@H](CC(=O)O)NC(=O)[C@H](CO)NC(=O)[C@@H](NC(=O)[C@H](Cc1ccccc1)NC(=O)[C@@H](NC(=O)CNC(=O)[C@H](CCC(=O)O)NC(=O)C(C)(C)NC(=O)[C@H](Cc1ccc(O)cc1)NC)[C@@H](C)O)[C@@H](C)CC)C(=O)N[C@@H](C)C(=O)N[C@@H](CC(C)C)C(=O)N[C@@H](CC(=O)O)C(=O)N[C@@H](CCCNC(=N)N)C(=O)N[C@H](C(=O)N[C@@H](Cc1c[nH]cn1)C(=O)N[C@@H](CCC(N)=O)C(=O)NC(C)(C)C(=O)N[C@@H](CC(N)=O)C(=O)N[C@@H](Cc1ccccc1)C(=O)N[C@H](C(=O)N[C@@H](CC(N)=O)C(=O)N[C@@H](Cc1c[nH]c2ccccc12)C(=O)N[C@@H](CC(C)C)C(=O)N[C@@H](CC(C)C)C(=O)N[C@@H](C)C(=O)N[C@@H](CCC(N)=O)C(=O)N[C@@H](CCCCNC(=O)COCCOCCNC(=O)COCCOCCNC(=O)CC[C@H](NC(=O)CCCCCCCCCCCCCCCCC(=O)O)C(=O)O)C(=O)N1CCC[C@H]1C(=O)N[C@@H](CO)C(=O)N[C@@H](CO)C(=O)NCC(=O)N[C@@H](C)C(=O)N1CCC[C@H]1C(=O)N1CCC[C@H]1C(=O)N1CCC[C@H]1C(=O)N[C@@H](CO)C(N)=O)C(C)C)[C@@H](C)CC [Compound 2] (H-[NMeY][Aib]EGTFISDYSIALDRIHQ[Aib]NFVNWLLAQK([AEEA-AEEA-γGlu-C18 diacid])PSSGAPPPS-NH2)
half-life at 500 nM [1]: 24.1 h
remaining at 48 h, 500 nM ([1]; 48 hr): 27%
solubility [2, 6]: ≥ 30 mg/mL
solubility [2, 7]: ≥ 15 mg/mL

CC[C@H](C)[C@H](NC(=O)[C@H](CO)NC(=O)[C@H](Cc1ccc(O)cc1)NC(=O)[C@H](CC(=O)O)NC(=O)[C@H](CO)NC(=O)[C@@H](NC(=O)[C@H](Cc1ccccc1)NC(=O)[C@@H](NC(=O)CNC(=O)[C@H](CCC(=O)O)NC(=O)C(C)(C)NC(=O)[C@H](Cc1ccc(O)cc1)NC)[C@@H](C)O)[C@@H](C)CC)C(=O)N[C@@H](C)C(=O)N[C@@H](CCCCNC(=O)COCCOCCNC(=O)COCCOCCNC(=O)CC[C@H](NC(=O)CCCCCCCCCCCCCCCCC(=O)O)C(=O)O)C(=O)N[C@@H](CC(=O)O)C(=O)N[C@@H](CCCNC(=N)N)C(=O)N[C@H](C(=O)N[C@@H](Cc1c[nH]cn1)C(=O)N[C@@H](CCC(N)=O)C(=O)N[C@@H](CCC(N)=O)C(=O)N[C@@H](CC(N)=O)C(=O)N[C@@H](Cc1ccccc1)C(=O)N[C@H](C(=O)N[C@@H](CC(N)=O)C(=O)N[C@@H](Cc1c[nH]c2ccccc12)C(=O)N[C@@H](CC(C)C)C(=O)N[C@@H](CC(C)C)C(=O)N[C@@H](C)C(=O)N[C@@H](CCC(N)=O)C(=O)N[C@@H](CCCNC(=N)N)C(=O)N1CCC[C@H]1C(=O)N[C@@H](CO)C(=O)N[C@@H](CO)C(=O)NCC(=O)N[C@@H](C)C(=O)N1CCC[C@H]1C(=O)N1CCC[C@H]1C(=O)N1CCC[C@H]1C(=O)N[C@@H](CO)C(N)=O)C(C)C)[C@@H](C)CC [Compound 3] (H-[NMeY][Aib]EGTFISDYSIAK([AEEA-AEEA-γGlu-C18 diacid])DRIHQQNFVNWLLAQRPSSGAPPPS-NH2)
half-life at 500 nM [1]: 15.9 h
remaining at 48 h, 500 nM ([1]; 48 hr): 13%
solubility [2, 6]: ≥ 30 mg/mL
solubility [2, 7]: ≥ 15 mg/mL

CC[C@H](C)[C@H](NC(=O)[C@H](CO)NC(=O)[C@H](Cc1ccc(O)cc1)NC(=O)[C@H](CC(=O)O)NC(=O)[C@H](CO)NC(=O)[C@@H](NC(=O)[C@H](Cc1ccccc1)NC(=O)[C@@H](NC(=O)CNC(=O)[C@H](CCC(=O)O)NC(=O)C(C)(C)NC(=O)[C@H](Cc1ccc(O)cc1)NC)[C@@H](C)O)[C@@H](C)CC)C(=O)N[C@@H](C)C(=O)N[C@@H](CC(C)C)C(=O)N[C@@H](CC(=O)O)C(=O)N[C@@H](CCCNC(=N)N)C(=O)N[C@@H](CCCCNC(=O)COCCOCCNC(=O)COCCOCCNC(=O)CC[C@H](NC(=O)CCCCCCCCCCCCCCCCC(=O)O)C(=O)O)C(=O)N[C@@H](Cc1c[nH]cn1)C(=O)N[C@@H](CCC(N)=O)C(=O)N[C@@H](CCC(N)=O)C(=O)N[C@@H](CC(N)=O)C(=O)N[C@@H](Cc1ccccc1)C(=O)N[C@H](C(=O)N[C@@H](CC(N)=O)C(=O)N[C@@H](Cc1c[nH]c2ccccc12)C(=O)N[C@@H](CC(C)C)C(=O)N[C@@H](CC(C)C)C(=O)N[C@@H](C)C(=O)N[C@@H](CCC(N)=O)C(=O)N[C@@H](CCCNC(=N)N)C(=O)N1CCC[C@H]1C(=O)N[C@@H](CO)C(=O)N[C@@H](CO)C(=O)NCC(=O)N[C@@H](C)C(=O)N1CCC[C@H]1C(=O)N1CCC[C@H]1C(=O)N1CCC[C@H]1C(=O)N[C@@H](CO)C(N)=O)C(C)C [Compound 4] (H-[NMeY][Aib]EGTFISDYSIALDRK([AEEA-AEEA-γGlu-C18 diacid])HQQNFVNWLLAQRPSSGAPPPS-NH2)
half-life at 500 nM [1]: 17.1 h
remaining at 48 h, 500 nM ([1]; 48 hr): 15%
solubility [2, 6]: ≥ 30 mg/mL
solubility [2, 7]: ≥ 15 mg/mL

CC[C@H](C)[C@H](NC(=O)[C@H](Cc1ccccc1)NC(=O)[C@@H](NC(=O)CNC(=O)[C@H](CCC(=O)O)NC(=O)C(C)(C)NC(=O)[C@H](Cc1ccc(O)cc1)NC)[C@@H](C)O)C(=O)N[C@@H](CO)C(=O)N[C@@H](CC(=O)O)C(=O)N[C@@H](Cc1ccc(O)cc1)C(=O)N[C@@H](CO)C(=O)N[C@H](C(=O)NC(C)(C)C(=O)N[C@@H](CC(C)C)C(=O)N[C@@H](CC(=O)O)C(=O)N[C@@H](CCCNC(=N)N)C(=O)N[C@@H](CCCCNC(=O)COCCOCCNC(=O)COCCOCCNC(=O)CC[C@H](NC(=O)CC[C@H](NC(=O)CCCCCCCCCCCCCCCC(=O)O)C(=O)O)C(=O)O)C(=O)N[C@@H](C)C(=O)N[C@@H](CCC(N)=O)C(=O)NC(C)(C)C(=O)N[C@@H](CC(N)=O)C(=O)N[C@@H](Cc1ccccc1)C(=O)N[C@H](C(=O)N[C@@H](CC(N)=O)C(=O)N[C@@H](Cc1c[nH]c2ccccc12)C(=O)N[C@@H](CC(C)C)C(=O)N[C@@H](CC(C)C)C(=O)N[C@@H](C)C(=O)N[C@@H](CCC(N)=O)C(=O)N[C@@H](CCCNC(=N)N)C(=O)N1CCC[C@H]1C(=O)N[C@@H](CO)C(=O)N[C@@H](CO)C(=O)NCC(=O)N[C@@H](C)C(=O)N1CCC[C@H]1C(=O)N1CCC[C@H]1C(=O)N1CCC[C@H]1C(=O)N[C@@H](CO)C(N)=O)C(C)C)[C@@H](C)CC [Compound 15] (H-[NMeY][Aib]EGTFISDYSI[Aib]LDRK([AEEA-AEEA-γGlu-γGlu-C17 diacid])AQ[Aib]NFVNWLLAQRPSSGAPPPS-NH2)
half-life at 500 nM [1]: > 48 h
% Remaining at 48 hr ([1]; 48 hr): 131.1%
fraction unbound at 30 min, 1000 nmol/L ([3]; both sexes, pH 7.4, fraction unbound, human plasma, 1000 nmol/L peptide, ultracentrifugation, read-out: Human PPB (FUplasma)): 0.0017
free unbound peptide in human plasma (in words) ([3]; judged for once per week (QW) dosing): optimum free unbound peptide
fraction unbound at 30 min, 1000 nmol/L [4]: 0.0021
solubility [2, 6]: ≥ 30 mg/mL
solubility [2, 7]: ≥ 15 mg/mL
half-life ([5]; IV 3 nmol/kg, read-out: IV T½ (converted)): 57 h
MRT last ([5]; SC 3 nmol/kg, read-out: SC MRT 0-last): 64 h
